These results are taken from article PMC6136576, “Ubiquitin-Mimicking Peptides Transfer Differentiates by E1 and E2 Enzymes” (BioMed Research International, 2018).

Entries after “also recorded” stand apart in the source; their conditions may differ. Marks after values point to notes of the source that are not given here.

The target of one test is T1, Ube1 (Homo sapiens, UniProt P22314).
T1 sequence (P22314 1-1058): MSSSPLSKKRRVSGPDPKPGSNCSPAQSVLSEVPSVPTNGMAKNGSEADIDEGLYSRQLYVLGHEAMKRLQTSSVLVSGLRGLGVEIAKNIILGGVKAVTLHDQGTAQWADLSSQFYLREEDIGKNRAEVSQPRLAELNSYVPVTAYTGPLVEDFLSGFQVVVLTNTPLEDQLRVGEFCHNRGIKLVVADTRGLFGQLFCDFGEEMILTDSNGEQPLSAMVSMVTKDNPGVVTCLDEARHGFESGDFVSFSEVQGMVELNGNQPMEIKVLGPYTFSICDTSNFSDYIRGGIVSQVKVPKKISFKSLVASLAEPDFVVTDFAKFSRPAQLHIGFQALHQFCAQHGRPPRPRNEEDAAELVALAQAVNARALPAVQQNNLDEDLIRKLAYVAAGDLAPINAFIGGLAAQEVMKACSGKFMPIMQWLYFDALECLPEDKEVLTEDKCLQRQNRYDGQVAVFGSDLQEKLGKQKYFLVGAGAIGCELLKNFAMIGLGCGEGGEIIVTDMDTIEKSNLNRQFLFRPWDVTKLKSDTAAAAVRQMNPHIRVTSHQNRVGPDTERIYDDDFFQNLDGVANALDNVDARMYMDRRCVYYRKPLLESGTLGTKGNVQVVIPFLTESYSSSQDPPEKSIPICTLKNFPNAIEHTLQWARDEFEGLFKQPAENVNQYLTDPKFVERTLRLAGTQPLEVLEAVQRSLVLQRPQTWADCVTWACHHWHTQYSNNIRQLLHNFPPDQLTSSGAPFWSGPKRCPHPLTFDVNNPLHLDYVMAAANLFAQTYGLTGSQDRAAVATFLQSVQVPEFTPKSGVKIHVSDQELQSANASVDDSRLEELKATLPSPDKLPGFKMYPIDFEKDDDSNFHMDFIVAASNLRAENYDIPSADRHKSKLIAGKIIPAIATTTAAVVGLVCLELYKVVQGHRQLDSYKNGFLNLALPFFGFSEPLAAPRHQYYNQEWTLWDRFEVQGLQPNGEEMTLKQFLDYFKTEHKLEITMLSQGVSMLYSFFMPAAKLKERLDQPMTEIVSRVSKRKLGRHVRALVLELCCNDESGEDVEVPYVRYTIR
The test can be described thus: ATP-PPi exchange assay of Ube1 activation. The format is biochemical. The following applies: for Km / kcat / kcat/Km: ATP-PPi exchange catalyzed by Ube1, 0.05 uM Ube1, peptides 10-1000 uM, n=3; for Km: 50 mM Tris-Cl pH7.5, 10 mM MgCl2, 1 mM ATP, 1 mM [32P]pyrophosphate, room temperature; for Km / kcat: Michaelis-Menten fit; for kcat / kcat/Km: pH7.5, room temperature; for reactivity of free 7mer peptides with Ube1 (ATP-PPi exchange rate): free short peptides, Figure 1, n=3. On the procedure:
Initial velocity of Ube1-activated peptides either in the free state or on different frames was followed by the ATP-PPi exchange assay. 50 uL reactions were set up containing varying concentrations of peptides, 0.05 uM Ube1, 50 mM Tris-Cl, pH7.5, 10 mM MgCl2, and 1 mM ATP. The reactions were initiated by adding of 1 mM [^32P]pyrophosphate (4.6 Ci/mol). The reactions were incubated at room temperature and quenched at various time points by adding of 0.5 mL of a suspension of activated charcoal (1.6 % (w/v) charcoal, 0.1 M tetrasodium pyrophosphate, and 0.35 M perchloric acid) to each of the reactions. The charcoal was pelleted by centrifugation and each charcoal pellet was washed three times with 1 ml 2 % trichloroacetic acid. Finally the charcoal pellet was resuspended in 0.5 ml water and the suspension was added to 3.5 mL Ultima Gold LSC-cocktail (PerkinElmer). The radioactivity bound to charcoal was determined by liquid scintillation counting. To measure the kinetics of the peptides activation by Ube1, initial velocities of ATP-PPi exchange were determined with concentrations of peptides varying from 10 uM to 1000 uM. The kinetic data were fitted to the Michaelis-Menten equation with the data analysis software Origin.

For the next test, the system named is E2 and E3. The conditions noted are these: cited from earlier work.

By Km is commonly meant the concentration of substrate that gives half-maximal velocity. As a reminder, the kcat is the number of substrate molecules converted per active site and unit of time at saturation. On to “VLRQLGG [C2, heptamer peptide VLRQLGG from Drosophila homologue of C1orf55]”, for which, at Ube1, the Km amounted to 611 ± 23.1 µM; the kcat is recorded as 3.73±0.87^b min^−1; the kcat/Km is given as 6.10 x10^−3^b μM min^−1; the “reactivity of free 7mer peptides with Ube1 (ATP-PPi exchange rate)” value was “displayed affinity with Ube1 with a similar level of efficiency as P3 and P4”.
As for “AGRMLGG [C7, heptamer peptide AGRMLGG from Ubiquitin-like protein fubi and ribosomal protein S30 precursor]”, on Ube1, the Km is 543 ± 122 µM; the kcat is listed as 5.54±1.37^c min^−1; the kcat/Km was 1.01 x10^−2^c μM min^−1; the “reactivity of free 7mer peptides with Ube1 (ATP-PPi exchange rate)” value was “displayed affinity with Ube1 with a similar level of efficiency as P3 and P4; also recorded: highest activity of the three peptides identified in this study”.
For “IPRDRVG [C8, heptamer peptide IPRDRVG from Ubiquitin-fold modifier 1 (Homo sapiens)]”, the “reactivity of free 7mer peptides with Ube1 (ATP-PPi exchange rate)” value on Ube1 is “neither C8, containing Arg but only one Gly, nor C3, which possesses the C-terminal Gly-Gly but with a homologous replacement of Arg to Lys, showed any reactivity toward Ube1”.
As to “EPRLCGG [C1, heptamer peptide EPRLCGG from the motif of Human C1orf55]”, on Ube1, the Michaelis constant (Km) amounted to 651 ± 49.3 µM; the kcat is on record as 2.29±0.59^a min^−1; the kcat/Km is 3.52 x10^−3^a μM min^−1; the “reactivity of free 7mer peptides with Ube1 (ATP-PPi exchange rate)” value was “displayed affinity with Ube1 with a similar level of efficiency as P3 and P4”.
Turning to “ALKERGG [C3, heptamer peptide ALKERGG from Human splicing factor 3A subunit 1 isoform 1]”, at Ube1, the “reactivity of free 7mer peptides with Ube1 (ATP-PPi exchange rate)” value was “neither C8, containing Arg but only one Gly, nor C3, which possesses the C-terminal Gly-Gly but with a homologous replacement of Arg to Lys, showed any reactivity toward Ube1”.
VLRLRGG [P1, reference compound]: at Ube1, the kcat/Km was found to be 5.24e-05 µM/min and the “reactivity of free 7mer peptides with Ube1 (ATP-PPi exchange rate)” value is reported as “could not be conjugated to Ube1”.
With “VYRFYGG [P4, previously reported short peptide VYRFYGG, positive control, reference compound]”, on Ube1, the Km was found to be 251 ± 55.6 µM, the kcat stood at 13.98 ± 2.08 min⁻¹, the kcat/Km stood at 0.0557 µM/min and the “reactivity of free 7mer peptides with Ube1 (ATP-PPi exchange rate)” value was “showed significant activity with Ube1”. Moreover, the “transfer of free peptides to E2 and E3” value with E2 and E3 is “could be transferred to E2 and E3”.
On to “VQRYWGG [P3, previously reported short peptide VQRYWGG, positive control, reference compound]”, for which, at Ube1, the Km came out at 476 ± 163 µM, the kcat stood at 6.68 ± 0.77 min⁻¹, the kcat/Km is 0.014 µM/min and the “reactivity of free 7mer peptides with Ube1 (ATP-PPi exchange rate)” value is reported as “showed significant activity with Ube1”. For the same substance, in the test on E2 and E3, the “transfer of free peptides to E2 and E3” value was “could be transferred to E2 and E3”.
